In US6673940B1, “Compositions and methods relating to cyclic compounds that undergo nucleotide base pair-specific interactions with double-stranded nucleic acids” (California Institute of Technology, priority 1999, dated 2004):

How the values were obtained:
[1] = tested on: 5′-AGTACT-3′ site on 229 bp restriction fragment of pJT8; test: Quantitative DNase I footprint titration, 5′-AGTACT-3′ site; type: binding; details: for equilibrium association constant Ka at 5′-AGTACT-3′: 10 mM Tris•HCl, 10 mM KCl, 10 mM MgCl2, 5 mM CaCl2, pH 7.0, 22° C., match site for (3), single base pair mis-match for (4)
Protocol: (§1) FIGS. 8A and 8B depict the results quantitative DNase I footprint titration experiments with (a) cyclo-(Γ-Im-Py-Py-Py-(R)^H^2^Nγ-Im-Py-Py-Py) (3) and (b) cyclo-(γ-Im-Py-Py-Py(R)^H^2^Nγ-Py-Py-Py-Py) (4) on the 3′-end labeled 229-bp restriction fragment of pJT8. Lane 1, intact DNA control; lane 2, A reaction; lane 3, DNase I standard, lanes 4-13, 5 pM, 10 pM, 20 pM, 50 pM, 100 pM, 1 nM, 2 nM, 5 nM, and 10 nM of the respective polyamide. The 5′-AGTACT-3′ and 5′-AGTATT-3′ match and mis-match sites for each polyamide were analyzed and are shown on the right side of the respective autoradiograms. All reactions contained 20 kcpm of radiolabeled restriction fragment, 10 mM Tris•HCI (pH 7.0), 10 mM KC1, 10 mM MgCl2, and 5 mM CaCl2.
(§2) As controls, the binding affinities and sequence specificities of the Im-Py-Py-Py-β-Dp (1) unlinked 2:1 dimer and a hairpin analog 1m-Py-Py-Py-(R)^H,Nγ-Im-Py-Py-Py-C3-OH (2) were also studied. An EDTA analogue, cyclo-(γ-Im-Py-Py-Py-(R)^EDTA-FE(II)γ-Py-Py-Py-Py-) (4-E•Fe(II)) was constructed to confirm the binding orientation of cyclic polyamide (4) at its 5′-AGTATT-3′ match and 5′-AGTACT-3′ single base pair mismatch site. All polyamides were synthesized by solid phase methods (see Baird, et al., J. Am. Chem. Soc., vol. 118:6141 (1996), and U.S. Ser. No. 08/607,078 for a description of solid phase synthesis methods for non-cyclic polyamides). Polyamide purity and identity was confirmed by H NMR, MALDI-TOF MS, and analytical HPLC. Precise binding site sizes were determined by MPE•Fe(II) footprinting (see Van Dyke, et al., Proc. Natl. Acad. Sci. U.S.A., vol. 79:5470 (1982), and Van Dyke and Dervan, Science, vol. 225:1122 (1984)), and binding orientation and stoichiometry confirmed by affinity cleaving experiments. See Taylor, et al., Tetrahedron, vol.40:457 (1984), and Dervan, P. B., Science, vol. 232:464 (1986). Equilibrium association constants (Ka) of the polyamides for their respective match and mis-match binding sites were determined by quantitative DNase I footprint titration, as described by Brenowitz, et al., Methods Enzymol., vol. 130:132 (1986), Brenowitz, et al., Proc. Natl. Acad. Sci. U.S.A., vol 83:8462 (1986), and Senear, et al., Biochemistry, vol. 25:7344 (1986).
Quantitative DNase I footprint titrations (10 mm Tris•HCI, 10 mM KCl, 10 MM MgCl2 and 5 mM CaCl2 pH 7.0 and 22° C.) were performed to determine the equilibrium association constants (Ka) of Im-Py-Py-Py-β-Dp (1), Im-Py-Py-Py-(R)^H,NγIm-Py-Py-Py-OH (2), cyclo-(γ-Im-Py-Py-Py-(R)^H,Nγ-Im-Py-Py-Py) (3), and cyclo-(γ-Im-Py-Py-Py-(R)^H,Nγ-Py-Py-Py-Py-) (4) for the 6 bp match and mis-match sites. The results for (3) and (4) are depicted in FIG. 8.

[2] = tested on: 5′-TGTTA-3′ dsDNA target sequence; details: Cho et al. 1995; cited from earlier work
[3] = tested on: 229 base pair DNA restriction fragment from the plasmid pJT8 (5′-AGTATT-3′ and 5′-AGTACT-3′ sites); test: Affinity cleavage experiments; type: binding; details: 100 nM; 20 mM HEPES pH 7.3, 200 mM NaCl, 1 μM Fe(II), 22° C.
Protocol: FIGS. 6A and 6B show the results of affinity cleaving experiments using cyclo-(γ-Im-Py-Py-Py-(R)^EDTA-Fe(II)γ-Py-Py-Py-Py) (4-E•Fe(II)) on the (a) 3′- and (b) 5′-^32P-labeled 229 bp restriction fragment of pJT8. The match and single mis-match sites 5′-AGTATT-3′ and 5′-AGTACT-3′ are shown on the right side of the autoradiograms. The lanes of each gel are described as follows lane 1, intact DNA (control); lane 2, A reaction; lanes 3-7, 100 pM, 1 nM, 10 nM, and 100 nM, and 1 μM polyamide, respectively. All lanes contain 15 kcpm of either 3′- or 5′-radiolabeled DNA, 20 mM HEPES buffer (pH 7.3), 200 mM NaCl, 50 μg/ml glycogen, 5 mM DTT, 1 μM Fe(II), pH 7.0, and were run at 22° C.
FIGS. 7A-7C illustrate the synthesis of cyclo-(γ-Im-Py-Py-Py(R)^EDTA•Fe(II)γPy-Py-Py-Py) (4-E•Fe(II)) from cyclo-(γ-Im-Py-Py-Py-(R)^H2^Nγ-Py-Py-Py-Py) (4) by: (i) EDTA dianhydride (DMSO/NMP, DIEA, 55° C., 15 min); (ii) 0.1 M NaOH (55° C., 10 min). […] Bar heights are proportional to the relative cleavage intensities at each base pair. Shaded and non-shaded circles denote Im and Py carboxamides, respectively. The boxed Fe denotes the EDTA•Fe(II) cleavage moiety. […]

[4] = tested on: 229 base pair restriction fragment of pJT8 (5′-AGTACT-3′ and 5′-AGTATT-3′ sites); test: MPE•Fe(II) footprinting; type: binding; details: 25 mM HEPES pH 7.3, 200 mM NaCl, 22°; for MPE•Fe(II) footprinting: binding at match site: 10 nM polyamide
Protocol: FIG. 5 illustrates the 229 bp restriction fragment with the relative positions of the match and single base pair mis-match sequences indicated for two 8-ring cyclic polyamides, cyclo-(γ-Im-Py-Py-Py-(R)^H2^Nγ-Im-Py-Py-Py) (3) and cyclo-(γ-Im-Py-Py-Py-(R)^H2^Nγ-Py-Py-Py-Py) (4). MPE•Fe(II) protection patterns of 10 nM cyclo-(γ-Im-Py-Py-Py-(R)^H2^Nγ-Im-Py-Py-Py) (3) and 10 nM cyclo-(γ-Im-Py-Py-Py-(R)^H2^Nγ-Py-Py-Py-Py) (4) are shown by the bar graphs. Bar heights are proportional to the relative protection from cleavage at each base pair. Binding sites determined by MPE•Fe(II) footprinting and quantitated by DNase I footprint titrations are boxed. Autoradiograms of MPE•Fe(II) footprinting experiments using cyclo-(γ-Im-Py-Py-Py-(R)^H^2^Nγ-Im-Py-Py-Py) (3) (left) and cyclo-(γ-Im-Py-Py-Py-(R)^H^2^Nγ-Py-Py-Py-Py) (4) (right) on the 3′ ^32P-labeled 229 bp restriction fragment of pJT8. 5′-AGTATT-3′ and 5′-AGTACT-3′ sites are shown adjacent to the auto radiograms. Lane 1, intact control; lane 2, MPE•Fe(II) reaction; lane 3, A reaction standard; lanes 4-8: 100 pM; 1 nM; 10 nM; 100 nM; and […] polyamide, respectively. All lanes contain 15 kcpm of either 3′ or 5′-radiolabeled DNA, 25 mM HEPES buffer (pH 7.3), 200 mM NaCl, […] glycogen, 5 mM DTT, 0.5 mM MPE•Fe(II), and were run at 22° C.
as §2, with “25:7344 (1986). […]” for “25:7344 (1986).”

[5] = tested on: 5′-AGTATT-3′ site on 229 bp restriction fragment of pJT8; test: Quantitative DNase I footprint titration, 5′-AGTATT-3′ site; type: binding; details: for equilibrium association constant Ka at 5′-AGTATT-3′: 10 mM Tris•HCl, 10 mM KCl, 10 mM MgCl2, 5 mM CaCl2, pH 7.0, 22° C., match site for (4), single base pair mis-match for (3)
Protocol: as §1
as §2, with “130:132 (1986), Brenowitz, et al., Proc. Natl. Acad. Sci. U.S.A., vol 83:8462 (1986), and Senear, et al., Biochemistry, vol. 25:7344 (1986).” left out

increase in dsDNA binding affinity relative to unlinked, dimeric polyamide (1) ([1]; 5′-AGTACT-3′ match site) | MPE•Fe(II) footprinting: binding at match site [4] | equilibrium association constant Ka at 5′-AGTATT-3′ [5] | equilibrium association constant Ka at 5′-AGTACT-3′ [1] | Substance | specificity for match sequence versus single base pair mismatch sites [2] | MPE•Fe(II) footprinting: binding at single base pair mismatch site [4] | other results
428 fold | – | – | – | Im-Py-Py-Py-(R)^H2Nγ-Im-Py-Py-Py-OH [polyamide 2, reference compound] | – | – | lower affinity than previously described hairpin Im-Py-Py-Py-γ-Im-Py-Py-Py-β-Dp [1]: 4 fold; lower sequence specificity than previously described hairpin Im-Py-Py-Py-γ-Im-Py-Py-Py-β-Dp [1]: 5
3,600 fold | bound to its designated 6 bp match sites | 1.3e+09 M⁻¹ | 7.6e+10 M⁻¹ | cyclo-(γ-Im-Py-Py-Py-(R)^H2Nγ-Im-Py-Py-Py) [polyamide 3] | – | detected only at much higher polyamide concentrations | affinity enhancement relative to hairpin polyamide (2) ([1]; 5′-AGTACT-3′ match site): 8 fold; specificity for match 5′-AGTACT-3′ over single base pair mis-match 5′-AGTATT-3′ ([1]; ratio of Ka values): 55 fold
– | bound to its designated 6 bp match sites | 3.1e+09 M⁻¹ | 4.2e+08 M⁻¹ | cyclo-(γ-Im-Py-Py-Py-(R)^H2Nγ-Py-Py-Py-Py) [polyamide 4] | – | protected its targeted match site 5′-AGTATT-3′ and the single base pair mismatch site 5′-AGTACT-3′ | preference for match 5′-AGTATT-3′ versus single base pair mis-match 5′-AGTACT-3′ ([5]; ratio of Ka values): 7 fold

The next lines start with the substance.

Substance | increase in dsDNA binding affinity relative to unlinked, dimeric polyamide (1) ([1]; 5′-AGTACT-3′ match site) | MPE•Fe(II) footprinting: binding at match site [4] | equilibrium association constant Ka at 5′-AGTATT-3′ [5] | equilibrium association constant Ka at 5′-AGTACT-3′ [1] | specificity for match sequence versus single base pair mismatch sites [2] | MPE•Fe(II) footprinting: binding at single base pair mismatch site [4] | other results
Im-Py-Py-γ-Py-Py-Py-Dp | – | – | – | – | 20 fold | – | –
cyclo-(Im-Py-Py-γ-Py-Py-Py-γ) | – | – | – | – | 4-17 fold | – | concentration at which the five base pair target 5′-TGTTA-3′ is bound [2]: subnanomolar; higher affinity relative to hairpin analog Im-Py-Py-γ-Py-Py-Py-Dp [2]: 40 fold
cyclo-(γ-Im-Py-Py-Py-(R)^EDTA•Fe(II)γ-Py-Py-Py-Py-) [4-E•Fe(II)] | – | – | – | – | – | – | affinity cleavage pattern at 5′-AGTACT-3′ single base pair mis-match site [3]: minor cleavage loci located 3′ and 5′ adjacent to the single base pair mis-match 5′-AGTACT-3′ site; affinity cleavage pattern at 5′-AGTATT-3′ match site [3]: major cleavage locus proximal to the 3′ side of the 5′-AGTATT-3′ match sequence
